Patent publication US20150258192A1, “COMPOSITIONS AND METHODS FOR PREVENTING OR TREATING CHRONIC LUNG ALLOGRAFT DYSFUNCTION (CLAD) AND IDIOPATHIC PULMONARY FIBROSIS (IPF)” (priority 2014, published 2015)
No end group written: not given here.

How the values were obtained:
CK1γ2(h) = CK1γ2(h) (Homo sapiens, UniProt P78368); test: Kinase Profiling Assay; format: biochemical; conditions: peptide 100 μM
Outline: (§1)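 Kinase inhibition by MK2 inhibitory peptides was profiled radiometrically, with substrate phosphorylation from labeled ATP read by scintillation after capture on a charged filter. Values are relative to 100% activity and measured in duplicate.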

c-RAF(h) = c-RAF(h) (Homo sapiens, UniProt P04049); test: Kinase Profiling Assay; format: biochemical; conditions: peptide 100 μM
Outline: as §1

PAK6(h) = PAK6(h) (Homo sapiens, UniProt Q9NQU5); test: Kinase Profiling Assay; format: biochemical; conditions: peptide 100 μM
PAK6(h), sequence (Q9NQU5 whole entry): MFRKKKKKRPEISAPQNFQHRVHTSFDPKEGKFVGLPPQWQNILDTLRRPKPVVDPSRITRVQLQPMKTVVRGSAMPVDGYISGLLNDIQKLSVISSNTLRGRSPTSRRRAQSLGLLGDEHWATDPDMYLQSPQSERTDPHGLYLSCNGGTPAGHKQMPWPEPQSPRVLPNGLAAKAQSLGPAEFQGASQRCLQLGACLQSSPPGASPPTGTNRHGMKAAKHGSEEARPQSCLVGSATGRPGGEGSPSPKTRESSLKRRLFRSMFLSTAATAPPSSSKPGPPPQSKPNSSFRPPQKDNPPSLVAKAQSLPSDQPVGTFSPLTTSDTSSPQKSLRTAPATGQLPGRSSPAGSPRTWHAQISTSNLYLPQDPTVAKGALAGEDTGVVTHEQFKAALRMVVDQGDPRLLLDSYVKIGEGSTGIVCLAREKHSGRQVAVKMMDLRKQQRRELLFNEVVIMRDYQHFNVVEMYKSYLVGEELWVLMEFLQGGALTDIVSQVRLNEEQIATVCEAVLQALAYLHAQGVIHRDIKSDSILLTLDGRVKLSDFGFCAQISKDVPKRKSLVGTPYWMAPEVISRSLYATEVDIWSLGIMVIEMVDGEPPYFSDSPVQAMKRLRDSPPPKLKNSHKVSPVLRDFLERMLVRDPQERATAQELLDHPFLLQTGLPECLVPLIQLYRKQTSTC
Outline: as §1

[1] = molecular target: T1, human recombinant MK2 (h) (Homo sapiens, UniProt P49137); test: Radiometric IC50 Determination; format: biochemical; conditions: 10-point curve; ATP within 15 μM of apparent Km
T1 construct: purchased Millipore (IC50 Profiler Express service)
T1 sequence (P49137 whole entry): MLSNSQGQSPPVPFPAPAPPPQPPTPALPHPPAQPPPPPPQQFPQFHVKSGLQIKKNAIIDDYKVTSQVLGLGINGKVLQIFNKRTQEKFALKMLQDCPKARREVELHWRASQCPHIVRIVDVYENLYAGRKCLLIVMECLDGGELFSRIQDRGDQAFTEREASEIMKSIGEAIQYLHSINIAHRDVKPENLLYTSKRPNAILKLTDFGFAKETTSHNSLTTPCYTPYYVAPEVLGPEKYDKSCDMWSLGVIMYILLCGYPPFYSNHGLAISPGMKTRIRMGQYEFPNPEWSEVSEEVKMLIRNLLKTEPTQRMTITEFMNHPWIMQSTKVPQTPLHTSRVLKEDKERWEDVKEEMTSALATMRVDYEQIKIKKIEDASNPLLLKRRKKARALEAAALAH
Protocol: The IC50 value was estimated from a 10-point curve of one-half log dilutions. Peptide was supplied in dimethyl sulfoxide (DMSO). Specifically, human recombinant MK2 (h) (5-10 mU) was incubated with 50 mM sodium 3-glycerophosphate (pH=7.5), 0.1 mM EGTA, 30 μM of substrate peptide ([…]; SEQ ID NO: 21), 10 mM magnesium acetate, and 90 uM γ-^33P-ATP (final volume of 25 μL) for 40 minutes at room temperature. Then, the reaction was stopped with 3% phosphoric acid. 10 μL of this mixture was spotted onto a P30 filtermat and washed three times for five minutes with 75 mM phosphoric acid and once with methanol. Finally, the membrane was dried and a scintillation counter was used.
Specifically, in these assays, a positively charged substrate is phosphorylated with a radiolabeled phosphate group from an ATP if the kinase is not inhibited by an inhibitor peptide. The positively charged substrate then is attracted to a negatively charged filter membrane, quantified with a scintillation counter, and compared to a 100% activity control.

FGFR2(N549H)(h) = FGFR2(N549H)(h) (Homo sapiens, UniProt P21802, N549H); test: Kinase Profiling Assay; format: biochemical; conditions: peptide 100 μM
FGFR2(N549H)(h), sequence (P21802 22-821 N549H): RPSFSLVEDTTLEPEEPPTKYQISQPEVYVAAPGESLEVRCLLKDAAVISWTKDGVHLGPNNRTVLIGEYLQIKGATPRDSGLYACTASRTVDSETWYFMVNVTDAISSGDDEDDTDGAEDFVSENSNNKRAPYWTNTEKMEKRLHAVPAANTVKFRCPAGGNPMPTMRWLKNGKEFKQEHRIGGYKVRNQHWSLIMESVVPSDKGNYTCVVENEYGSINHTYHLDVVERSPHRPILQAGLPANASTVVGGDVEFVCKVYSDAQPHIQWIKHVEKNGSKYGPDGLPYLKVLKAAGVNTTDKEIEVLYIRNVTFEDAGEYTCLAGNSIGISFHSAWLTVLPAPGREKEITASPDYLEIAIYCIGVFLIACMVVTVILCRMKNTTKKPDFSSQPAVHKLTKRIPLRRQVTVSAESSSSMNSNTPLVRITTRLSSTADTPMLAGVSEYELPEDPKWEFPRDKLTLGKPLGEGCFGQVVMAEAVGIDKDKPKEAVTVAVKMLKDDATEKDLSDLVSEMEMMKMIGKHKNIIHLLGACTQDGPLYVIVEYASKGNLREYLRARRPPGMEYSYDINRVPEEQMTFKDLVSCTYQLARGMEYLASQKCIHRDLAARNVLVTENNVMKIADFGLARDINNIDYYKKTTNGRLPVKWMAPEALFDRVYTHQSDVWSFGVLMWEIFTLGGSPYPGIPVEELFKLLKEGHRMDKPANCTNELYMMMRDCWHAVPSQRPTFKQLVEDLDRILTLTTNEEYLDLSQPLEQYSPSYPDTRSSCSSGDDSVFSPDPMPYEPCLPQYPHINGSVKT
Outline: as §1

[2] = tested on: bleomycin-induced lung fibrosis in C57BL/6 mice; conditions: 37.5 μg/kg daily for 14 d from d14, inhaled or intra-peritoneal; cited from earlier work
TNF-α = test: Circulating inflammatory cytokines, bleomycin treatment model; format: in vivo, mouse; conditions: 24 hours after final administration
[3] = tested on: alpha-smooth muscle actin (α-SMA); test: α-SMA immunostaining of lung sections, bleomycin treatment model; format: in vivo, mouse; conditions: 50 μg/kg/day IP or nebulizer, day 14-28
Source text: (§2) C57-BL/6 mice were subjected to bleomycin injury at day 0. […] Formalin-fixed lung tissue sections were immunostained against α-SMA. Control staining was with biotinylated secondary IgG antibody. Streptavidin-conjugated horseradish peroxidase was used with 3,3′-diaminobenzidene as substrate and nuclei was counterstained with hematoxylin. Original magnifications: 20×

[4] = tested on: fibroblasts from bleomycin treated murine hyaluronan synthase 2 (mHAS2) lung; test: HA production of fibroblasts; format: cell-based, mouse
splenic T cells = test: Autologous mixed lymphocyte reaction (MLR) of splenic T cells from treated bleomycin mice; format: in vivo, mouse
Source text: Recent studies highlighted a key role for T lymphocytes in bleomycin-induced fibrosis (Wilson, M. et al., The Journal of Experimental Medicine, 207(3): 535-552, 2010). […] Specifically, the ability of C57BL/6 purified antigen-presenting cells to induce proliferation in C57BL/6 T lymphocytes was examined in the assay.
C57-BL/6 mice were subjected to bleomycin injury at day 0. […] Splenic T cells were isolated and cultured alone or in the presence of autologous antigen presenting cells (APCs from C57-BL/6 mice) or stimulated with antibodies against CD3 (α-CD3) for 48 h. The cells then were radiolabeled with […] thymidine for 16 h and assessed for proliferation rates.
The viability of the T cells also was confirmed by stimulating the cells with antibodies against α-CD3, a polyclonal T cell activator. α-CD3 induced robust proliferation of the cells irrespective of the treatment group.

[5] = tested on: phospho-Thr^334-MAPKAPK2 (activated form of MK2); test: Anti-phospho-Thr334-MAPKAPK2 staining of lung sections, bleomycin treatment model; format: in vivo, mouse; conditions: day 14-28
Source text: C57-BL/6 mice were subjected to bleomycin injury at day 0. […] Original magnifications: 20×.
as §2, with “Briefly, C57-BL/6” for “C57-BL/6”, “against phospho-Thr^334 MK2.” for “against α-SMA.”, “nuclei were” for “nuclei was”, “hematoxylin.” for “hematoxylin. Original magnifications: 20×”

[6] = tested on: fibroblasts from bleomycin treated mouse lung; test: Matrigel invasion assay, mouse lung fibroblasts; format: cell-based; conditions: fibroblasts from WT or ASMA-HAS2 mice; 8 μm
Protocol: Fibroblasts are critical effector cells in mediating tissue remodeling. […] We have developed a novel model of progressive lung fibrosis based on a cancer metastasis model. […] We hypothesized that fibrotic fibroblasts acquire an invasive phenotype that is essential for progressive fibrogenesis and that CD44 has a critical role in regulating the process. We utilized an assay system in which fibroblasts are evaluated for their ability to spontaneously invade Matrigel, a composite matrix with basement membrane constituents. This assay has been used to analyze the metastatic potential of cancer cells (40).
To determine the role of CD44 in fibroblast invasion we examined the invasive capacity of fibroblasts isolated from CD44 null mice after bleomycin treatment and found impaired invasive capacity (not shown). Similar results were found from fibroblasts isolated from ASMA-HAS2+/CD44−/− mice (FIG. 37 A). Furthermore, treating fibroblasts isolated from bleomycin-challenged wild type C57B1/6J mice with anti-CD44 Abs blunted fibroblast invasion (FIG. 37 B).

mesothelial cells = conditions: cited from earlier work
IL-6 = test: Circulating inflammatory cytokines, bleomycin treatment model; format: in vivo, mouse; conditions: 24 hours after final administration
Plk1(h) = Plk1(h) (Homo sapiens, UniProt P53350); test: Kinase Profiling Assay; format: biochemical; conditions: peptide 100 μM
Plk1(h), sequence (P53350 whole entry): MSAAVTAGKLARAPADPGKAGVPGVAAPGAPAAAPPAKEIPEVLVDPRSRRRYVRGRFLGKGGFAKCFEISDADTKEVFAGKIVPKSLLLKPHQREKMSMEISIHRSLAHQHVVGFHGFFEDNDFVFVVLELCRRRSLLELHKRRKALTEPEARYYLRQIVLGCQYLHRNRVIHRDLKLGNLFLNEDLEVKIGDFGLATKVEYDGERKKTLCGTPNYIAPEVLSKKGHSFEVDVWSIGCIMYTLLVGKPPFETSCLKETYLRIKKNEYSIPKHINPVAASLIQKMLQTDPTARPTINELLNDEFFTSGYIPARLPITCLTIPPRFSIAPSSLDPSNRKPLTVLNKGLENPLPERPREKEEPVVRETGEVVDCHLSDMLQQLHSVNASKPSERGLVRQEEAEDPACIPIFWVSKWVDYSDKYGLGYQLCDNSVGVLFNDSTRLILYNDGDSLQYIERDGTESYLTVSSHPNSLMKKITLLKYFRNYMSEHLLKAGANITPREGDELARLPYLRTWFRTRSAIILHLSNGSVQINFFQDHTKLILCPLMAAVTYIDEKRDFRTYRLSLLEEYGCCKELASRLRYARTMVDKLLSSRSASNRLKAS
Outline: as §1

CK1γ1(h) = CK1γ1(h) (Homo sapiens, UniProt Q9HCP0); test: Kinase Profiling Assay; format: biochemical; conditions: peptide 100 μM
CK1γ1(h), sequence (Q9HCP0 whole entry): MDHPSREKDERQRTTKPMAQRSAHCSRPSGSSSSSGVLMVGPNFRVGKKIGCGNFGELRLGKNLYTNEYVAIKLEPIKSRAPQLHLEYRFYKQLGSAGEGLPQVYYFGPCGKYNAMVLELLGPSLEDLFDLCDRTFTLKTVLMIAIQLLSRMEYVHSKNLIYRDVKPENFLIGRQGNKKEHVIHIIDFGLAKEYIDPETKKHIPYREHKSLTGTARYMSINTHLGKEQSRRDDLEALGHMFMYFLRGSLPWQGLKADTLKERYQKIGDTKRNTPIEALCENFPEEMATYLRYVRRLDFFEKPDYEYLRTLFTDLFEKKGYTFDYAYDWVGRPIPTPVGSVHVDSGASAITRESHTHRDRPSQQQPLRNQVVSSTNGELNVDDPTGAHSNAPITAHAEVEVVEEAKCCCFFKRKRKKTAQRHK
Outline: as §1

CLK2(h) = CLK2(h) (Homo sapiens, UniProt P49760); test: Kinase Profiling Assay; format: biochemical; conditions: peptide 100 μM
CLK2(h), sequence (P49760 whole entry): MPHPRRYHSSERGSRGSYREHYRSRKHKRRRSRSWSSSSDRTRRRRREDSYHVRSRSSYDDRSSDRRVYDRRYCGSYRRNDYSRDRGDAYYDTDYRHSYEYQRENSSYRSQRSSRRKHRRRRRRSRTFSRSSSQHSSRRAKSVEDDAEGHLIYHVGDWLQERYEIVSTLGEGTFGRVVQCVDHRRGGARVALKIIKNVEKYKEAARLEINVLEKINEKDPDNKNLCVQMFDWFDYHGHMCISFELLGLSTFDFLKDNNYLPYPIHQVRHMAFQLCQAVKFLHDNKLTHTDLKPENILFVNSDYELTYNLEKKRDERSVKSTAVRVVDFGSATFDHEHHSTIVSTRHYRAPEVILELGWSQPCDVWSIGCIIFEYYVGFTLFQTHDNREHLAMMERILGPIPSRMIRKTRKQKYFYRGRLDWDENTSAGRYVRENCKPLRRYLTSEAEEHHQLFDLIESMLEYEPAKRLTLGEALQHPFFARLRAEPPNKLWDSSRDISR
Outline: as §1

CK1γ2(h), sequence (P78368 whole entry): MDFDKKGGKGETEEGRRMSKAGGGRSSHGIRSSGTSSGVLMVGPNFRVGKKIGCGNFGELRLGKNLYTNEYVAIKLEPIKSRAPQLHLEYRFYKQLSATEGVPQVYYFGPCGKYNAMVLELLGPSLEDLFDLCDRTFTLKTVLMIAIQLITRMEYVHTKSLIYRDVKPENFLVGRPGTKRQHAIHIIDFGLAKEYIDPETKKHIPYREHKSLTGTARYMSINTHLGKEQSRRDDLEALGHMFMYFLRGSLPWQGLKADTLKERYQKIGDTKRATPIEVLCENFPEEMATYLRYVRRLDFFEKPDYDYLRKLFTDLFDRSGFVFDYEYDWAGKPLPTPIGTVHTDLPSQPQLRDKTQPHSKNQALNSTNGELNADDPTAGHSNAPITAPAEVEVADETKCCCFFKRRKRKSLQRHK

FAKLAARLYRKALARQLGVAA [MMI-0300]
% activity (CK1γ2(h)): 123%

HRRIKAWLKKIKALARQLGVAA (Mammal) [MMI-0500]
% activity (c-RAF(h)): 19%

KAFAKLAARLYRKALARQLGVAA [MMI-0400]
% activity (PAK6(h)): 100%

YARAAARQARAKALARQLGVAA [MMI-0100]
IC50 [1]: 22 µM | % activity (FGFR2(N549H)(h)): 95% | progression of fibrosis (collagen deposition, myofibroblast differentiation, activated MK2 expression) [2]: inhibited | plasma level of TNF-α (TNF-α; intraperitoneal): significantly reduced | plasma level of TNF-α (TNF-α; nebulized): significantly reduced | level of α-SMA in lungs vs untreated bleomycin-injured lungs [3]: significantly attenuated | hyaluronan (HA) production [4]: reduced | toxicity (splenic T cell response to α-CD3) (splenic T cells; 50 μg/kg/day): no toxicity | systemic distribution (splenic T cells; nebulized delivery, inferred from lack of splenic T cell response): little systemic distribution | phospho-Thr^334-MAPKAPK2 staining ([5]; intraperitoneal 50 μg/kg daily): decreased | phospho-Thr^334-MAPKAPK2 staining ([5]; nebulized 50 μg/kg daily): decreased | fibroblast invasion [6]: significantly reduced | TFG-β-induced cytokine release (mesothelial cells): inhibits | plasma level of IL-6 (IL-6; intraperitoneal): significantly reduced | plasma level of IL-6 (IL-6; nebulized): significantly reduced

YARAAARQARAKALNRQLGVA (Mammal) [MMI-0200]
% activity (Plk1(h)): 128% | % activity (CK1γ1(h)): 98% | % activity (CLK2(h)): 97%
